Source: article PMC10879537 (Nature Communications, 2024)

Assays:
[1] = tested on: GX_P2V; experiment: microbe, parasite or virus in culture; assay type: cell-based, Guangxi pangolin-CoV (GX_P2V); conditions: for inhibition at 0.193125 µM / inhibition at 0.39 µM / inhibition at 0.49485 µM / inhibition at 0.79588 µM / inhibition at 0.78 µM / inhibition at 1.09691 µM / inhibition at 1.69897 µM / inhibition at 1.39794 µM: Vero C1008, 48 h, read-out: Percentage of Inhibition (%)
[2] = tested on: Vero E6 cells; experiment: cells; conditions: Chlorocebus sabaeus, Vero C1008, 48 h, read-out: Cytoxicity (%)

Structure (SMILES)	inhibition at 0.193125 µM [1]	inhibition at 0.39 µM [1]	inhibition at 0.49485 µM [1]	inhibition at 0.79588 µM [1]	cytotoxicity at 0.193125 µM [2]	cytotoxicity at 0.39 µM [2]	cytotoxicity at 0.49485 µM [2]	cytotoxicity at 0.78 µM [2]	cytotoxicity at 0.79588 µM [2]	inhibition at 0.78 µM [1]	inhibition at 1.09691 µM [1]	other results
COc1cc2c(cc1O)[C@@H](Cc1ccc(O)cc1)N(C)CC2 [(R)-N-Methylcolaurine]	25.6%	94.8%	55.7%	56.1%	9.96%	22.3%	20.1%	13.4%	9.7%			cytotoxicity at 1.39794 µM [2]: 23.2%
COc1cc2c(cc1O)[C@H](Cc1ccc(O)cc1)N(C)CC2 [(S)-N-Methylcolaurine]	17.4%			91.1%	6.97%			47%		15.1%	52.6%	inhibition at 1.69897 µM [1]: 20.9%; cytotoxicity at 1.39794 µM [2]: 2.6%
COc1cc2c(cc1O)[C@@H]1Cc3ccc(OC)c(O)c3CN1CC2 [(S)-Scoulerine]			24.5%		25%	27.5%	25.7%					cytotoxicity at 1.09691 µM [2]: 33.9%; cytotoxicity at 1.69897 µM [2]: 34%
COc1ccc2c(c1O)-c1c(O)c(OC)cc3c1[C@H](C2)N(C)CC3 [(S)-corytuberine]		54.6%								42.8%		
COc1cc2c(cc1O)-c1cc3ccc(OC)c(OC)c3c[n+]1CC2 [Columbamine]									34.5%		49.9%	inhibition at 1.39794 µM [1]: 66.7%
NCCc1ccc(O)c(O)c1 [Compound 4, dopamine, reference compound]	46.7%	33.8%	92.6%	41.1%			23.1%	31.1%				Antiviral activity (bioactivity) in dose-response analysis [1]: do not; cytotoxicity at 1.69897 µM [2]: 10.6%
Oc1ccc(C[C@@H]2NCCc3cc(O)c(O)cc32)cc1 [Compound 6, norcoclaurine]		55.7%		68.5%	41.2%	28.8%	9.98%		52.9%	83.5%		cytotoxicity at 1.09691 µM [2]: 10.9%
COc1cc2c(cc1O)C(Cc1ccc(O)cc1)NCC2 (stereo not shown) [Compound 11, coclaurine]			33.2%		8.1%							inhibition at 1.69897 µM [1]: 28.7%
COc1ccc(C[C@H]2c3cc(O)c(OC)cc3CCN2C)cc1O [Compound 12, reticuline]		81.7%	27.4%	65.7%						60%	49.6%	inhibition at 1.39794 µM [1]: 28.1%
COc1cc2c(cc1O)[C@@H](Cc1ccc(Oc3cc(C[C@@H]4c5cc(O)c(OC)cc5CCN4C)ccc3O)cc1)N(C)CC2 [Compound 32, guatteguamerine]												Antiviral activity (bioactivity) in dose-response analysis [1]: lacked antiviral activity
